Tests used:
smallflower flatsedge = test: Test B flood test smallflower flatsedge; type: in vivo, Cyperus difformis
Summary of the method: (§1)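 Read-out is a visual response score from 0 (no effect) to 10 (complete control), assigned by comparison with untreated controls. Treatment was applied at the 2-leaf stage, and plants stayed in the greenhouse for twelve to sixteen days before scoring.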

purple nutsedge = test: Test B pre/postemergence purple nutsedge; type: in vivo, Cyperus rotundus; settings: Postemergence
Summary of the method: (§2)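 Herbicidal effect was estimated by eye on a ten-point control scale after plants spent twelve to sixteen days in a greenhouse following soil or foliar treatment. Foliar sprays targeted plants at one to four leaves; all doses were formulated in a non-phytotoxic solvent with surfactant.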

bedstraw = test: Test B pre/postemergence bedstraw; type: in vivo, Galium aparine
Summary of the method: as §2

corn = test: Test B pre/postemergence corn; type: in vivo, Zea mays
Summary of the method: as §2

rape = test: Test B pre/postemergence rape; type: in vivo, Brassica napus
Summary of the method: as §2

pigweed = test: Test B pre/postemergence pigweed; type: in vivo, Amaranthus retroflexus
Summary of the method: as §2

wheat = test: Test B pre/postemergence wheat; type: in vivo, Triticum aestivum
Summary of the method: as §2

sugar beet = test: Test B pre/postemergence sugar beet; type: in vivo, Beta vulgaris
Summary of the method: as §2

surinam grass = test: Test B pre/postemergence surinam grass; type: in vivo, Brachiaria decumbens
Summary of the method: as §2

rice = test: Test B flood test rice; type: in vivo, Oryza sativa
Summary of the method: as §1

duck salad = test: Test B flood test duck salad; type: in vivo, Heteranthera limosa
Summary of the method: as §1

giant foxtail = test: Test B pre/postemergence giant foxtail; type: in vivo, Setaria faberii
Summary of the method: as §2

wild oat = test: Test B pre/postemergence wild oat; type: in vivo, Avena fatua
Summary of the method: as §2

cocklebur = test: Test B pre/postemergence cocklebur; type: in vivo, Xanthium strumarium
Summary of the method: as §2

soybean = test: Test B pre/postemergence soybean; type: in vivo, Glycine max
Summary of the method: as §2

velvetleaf = test: Test B pre/postemergence velvetleaf; type: in vivo, Abutilon theophrasti
Summary of the method: as §2

[1] = Rate 62 g/ha, headed Pre-emergence (flood test species), scale 0 to 10 (0 no effect, 10 complete control)
[2] = Rate 125 g/ha, Pre-emergence, flood test species, scale 0 to 10 where 0 is no effect and 10 is complete control
[3] = Rate 250 g/ha, Pre-emergence, flood-test species, scale 0 to 10, 0 is no effect, 10 is complete control
[4] = Preemergence, Rate 62 g/ha, scale of 0 to 10 where 0 is no effect and 10 is complete control
[5] = Preemergence, Rate 125 g/ha, 0 is no effect, 10 is complete control
[6] = Preemergence, Rate 250 g/ha, scale 0 to 10, 0 is no effect, 10 is complete control
[7] = Preemergence, Rate 500 g/ha, scale of 0 to 10 where 0 is no effect and 10 is complete control
[8] = Rate 62 g/ha, Postemergence, scale of 0 to 10 where 0 is no effect and 10 is complete control
[9] = Rate 125 g/ha, Postemergence, scale 0 to 10
[10] = Rate 500 g/ha, Postemergence, scale 0 to 10
[11] = Rate 500 g/ha, headed Pre-emergence (flood test species), scale 0 to 10 (0 no effect, 10 complete control)

Cc1ccccc1-n1c(=O)on(C(=O)N(c2ccc(Cl)cc2F)C(C)C)c1=O [Compound 195]
4: Redroot pigweed plant response rating (pigweed; [10]) | Plant response rating, Wild oats (wild oat; [7]) | Plant response rating (0 to 10; 0 is no effect, 10 is complete control), Soybean (soybean; Rate 250 g/ha, Postemergence)
5: Soybean plant response rating (soybean; [10])
3: Giant foxtail plant response rating (giant foxtail; [4]) | Giant foxtail plant response rating (0 to 10 scale) (giant foxtail; [5]) | Giant foxtail plant response rating (giant foxtail; [10]) | Soybean plant response rating (soybean; [9])
7: Bedstraw plant response rating (bedstraw; [10])
0: S. Flatsedge plant response rating (smallflower flatsedge; [1]) | S. Flatsedge plant response rating (smallflower flatsedge; [2]) | S. Flatsedge plant response rating (smallflower flatsedge; [3]) | S. Flatsedge plant response rating (smallflower flatsedge; Rate 500 g/ha, Pre-emergence, flood test species, scale 0 to 10 (0 no effect, 10 complete control)) | Nutsedge plant response rating (purple nutsedge; Rate 62 g/ha, scale of 0 to 10 where 0 is no effect and 10 is complete control) | Nutsedge plant response rating (purple nutsedge; Rate 125 g/ha, scale 0 to 10) | Plant response rating (0 to 10; 0 is no effect, 10 is complete control), Nutsedge (purple nutsedge; Rate 250 g/ha) | Nutsedge plant response rating (purple nutsedge; Rate 500 g/ha, scale 0 to 10) | Bedstraw plant response rating (bedstraw; [4]) | Bedstraw plant response rating (0 to 10 scale) (bedstraw; [5]) | Bedstraw plant response rating (bedstraw; [6]) | Corn plant response rating (corn; [4]) | Corn plant response rating (0 to 10 scale) (corn; [5]) | Corn plant response rating (corn; [6]) | Plant response rating, Corn (corn; [7]) | Corn plant response rating (corn; [8]) | Corn plant response rating (corn; [9]) | Plant response rating (0 to 10; 0 is no effect, 10 is complete control), Corn (corn; Rate 250 g/ha, Postemergence) | Corn plant response rating (corn; [10]) | Rape plant response rating (rape; [4]) | Rape plant response rating (0 to 10 scale) (rape; [5]) | Rape plant response rating (rape; [6]) | Plant response rating, Rape (rape; [7]) | Rape plant response rating (rape; [8]) | Rape plant response rating (rape; [9]) | Plant response rating (0 to 10; 0 is no effect, 10 is complete control), Rape (rape; Rate 250 g/ha, Postemergence) | Rape plant response rating (rape; [10]) | Redroot pigweed plant response rating (pigweed; [4]) | Redroot pigweed plant response rating (0 to 10 scale) (pigweed; [5]) | Redroot pigweed plant response rating (pigweed; [6]) | Plant response rating, Redroot pigweed (pigweed; [7]) | Redroot pigweed plant response rating (pigweed; [8]) | Redroot pigweed plant response rating (pigweed; [9]) | Wheat plant response rating (wheat; [4]) | Wheat plant response rating (wheat; [6]) | Plant response rating, Wheat (wheat; [7]) | Wheat plant response rating (wheat; [8]) | Wheat plant response rating (wheat; [9]) | Plant response rating (0 to 10; 0 is no effect, 10 is complete control), Wheat (wheat; Rate 250 g/ha, Postemergence) | Sugarbeets plant response rating (sugar beet; [4]) | Sugarbeets plant response rating (0 to 10 scale) (sugar beet; [5]) | Sugarbeets plant response rating (sugar beet; [6]) | Sugarbeets plant response rating (sugar beet; [8]) | Sugarbeets plant response rating (sugar beet; [9]) | Plant response rating (0 to 10; 0 is no effect, 10 is complete control), Sugarbeets (sugar beet; Rate 250 g/ha, Postemergence) | B. signalgrass plant response rating (surinam grass; [4]) | B. signalgrass plant response rating (0 to 10 scale) (surinam grass; [5]) | B. signalgrass plant response rating (surinam grass; [8]) | B. signalgrass plant response rating (surinam grass; Rate 125 g/ha, Postemergence, scale 0 (no effect) to 10 (complete control)) | Plant response rating, B. signalgrass (surinam grass; Rate 250 g/ha, Postemergence, scale 0 to 10, 0 is no effect, 10 is complete control) | Rice plant response rating (rice; [1]) | Rice plant response rating (rice; [2]) | Rice plant response rating (rice; [3]) | Plant response rating, Rice (rice; [11]) | Ducksalad plant response rating (duck salad; [1]) | Ducksalad plant response rating (duck salad; [2]) | Ducksalad plant response rating (duck salad; [3]) | Plant response rating, Ducksalad (duck salad; [11]) | Giant foxtail plant response rating (giant foxtail; [8]) | Giant foxtail plant response rating (giant foxtail; [9]) | Wild oats plant response rating (wild oat; [4]) | Wild oats plant response rating (wild oat; [6]) | Wild oats plant response rating (wild oat; [8]) | Wild oats plant response rating (wild oat; [9]) | Plant response rating (0 to 10; 0 is no effect, 10 is complete control), Wild oats (wild oat; Rate 250 g/ha, Postemergence) | Cocklebur plant response rating (cocklebur; [4]) | Cocklebur plant response rating (0 to 10 scale) (cocklebur; [5]) | Cocklebur plant response rating (cocklebur; [6]) | Plant response rating, Cocklebur (cocklebur; [7]) | Cocklebur plant response rating (cocklebur; [8]) | Soybean plant response rating (soybean; [4]) | Soybean plant response rating (0 to 10 scale) (soybean; [5]) | Soybean plant response rating (soybean; [6]) | Plant response rating, Soybean (soybean; [7]) | Velvetleaf plant response rating (velvetleaf; [4]) | Velvetleaf plant response rating (velvetleaf; [6]) | Plant response rating, Velvetleaf (velvetleaf; [7]) | Velvetleaf plant response rating (velvetleaf; [8]) | Velvetleaf plant response rating (velvetleaf; [9])
8: Giant foxtail plant response rating (giant foxtail; [6])
2: Plant response rating, Bedstraw (bedstraw; [7]) | Bedstraw plant response rating (bedstraw; [8]) | Bedstraw plant response rating (bedstraw; [9]) | Plant response rating (0 to 10; 0 is no effect, 10 is complete control), Redroot pigweed (pigweed; Rate 250 g/ha, Postemergence) | Plant response rating, Sugarbeets (sugar beet; [7]) | Sugarbeets plant response rating (sugar beet; [10]) | Cocklebur plant response rating (cocklebur; [9]) | Plant response rating (0 to 10; 0 is no effect, 10 is complete control), Cocklebur (cocklebur; Rate 250 g/ha, Postemergence) | Cocklebur plant response rating (cocklebur; [10]) | Soybean plant response rating (soybean; [8]) | Plant response rating (0 to 10; 0 is no effect, 10 is complete control), Velvetleaf (velvetleaf; Rate 250 g/ha, Postemergence)
1: B. signalgrass plant response rating (surinam grass; [6]) | B. signalgrass plant response rating (surinam grass; Rate 500 g/ha, Postemergence, scale 0 to 10, 0 no effect, 10 complete control) | Plant response rating (0 to 10; 0 is no effect, 10 is complete control), Giant foxtail (giant foxtail; Rate 250 g/ha, Postemergence)
10: Plant response rating, Giant foxtail (giant foxtail; [7])
6: Plant response rating, B. signalgrass (surinam grass; [7])
